The experiment deals with Rattus norvegicus. The experiment can be described thus: Anti-inflammatory activity in Rattus norvegicus albino (rat) assessed as inhibition of carrageenan-induced paw edema at 50 mg/kg, po administered 30 min before carrageenan challenge measured after 1 to 3 hr by plethysmometer analysis. Type of experiment: functional. Background: Carrageenan injected into the paw causes an acute inflammation.

Broadly, the inhibition in vivo is the percentage by which the read-out fell short of the control.

On to `CC1=CC(C)(C)NC(=S)N1Cc1ccncc1`, for which the inhibition in vivo at 50 mg/kg amounted to 25%.

In the case of `CC1=CC(C)(C)NC(=S)N1CC1CCCO1` (stereo not given), the inhibition in vivo at 50 mg/kg stood at 18%.

As to `CC1=CC(C)(C)NC(=S)N1CCc1c[nH]c2ccccc12`, the inhibition in vivo at 50 mg/kg turned out to be 30%.

`CC1=CC(C)(C)NC(=S)N1c1cc(C#N)ccc1N`: the inhibition in vivo at 50 mg/kg came to 32%.

With `CC1=CC(C)(C)NC(=S)N1c1cc(Br)ccc1N`, the inhibition in vivo at 50 mg/kg was determined as 31%.

Consider `CC1=CC(C)(C)NC(=S)N1c1cc(C)ccc1O`, for which the inhibition in vivo at 50 mg/kg was found to be 27%.

`CC1C=CN(CCc2c[nH]c3ccccc23)C(=S)N1` (stereo not given): the inhibition in vivo at 50 mg/kg was determined as 25%.

Take `CC1(C)CC2(C)Nc3ccc(C#N)cc3N2C(=S)N1` (stereo not given): the inhibition in vivo at 50 mg/kg amounted to 39%.

With `CC1(C)CC2(C)Nc3ccc(Br)cc3N2C(=S)N1` (stereo not given), the inhibition in vivo at 50 mg/kg is 24%.

Take `CC1CC2Nc3ccc(Br)cc3N2C(=S)N1` (stereo not given): the inhibition in vivo at 50 mg/kg is 27%.

With `Cc1cccc2c1N1C(=S)NC(C)CC1N2` (stereo not given), the inhibition in vivo at 50 mg/kg stood at 0%.

Turning to `CC1(C)CC(C)(O)N(Cc2ccncc2)C(=S)N1` (stereo not given), the inhibition in vivo at 50 mg/kg is 27%.

As for `CC1(C)CC(C)(O)N(CCN2CCCC2)C(=S)N1` (stereo not given), the inhibition in vivo at 50 mg/kg was determined as 8%.

Regarding `CC1(C)CC(C)(O)N(CCN2CCOCC2)C(=S)N1` (stereo not given), the inhibition in vivo at 50 mg/kg came to 35%.

For `CC1CC(O)N(Cc2ccncc2)C(=S)N1` (stereo not given), the inhibition in vivo at 50 mg/kg amounted to 30%.

In the case of `CC1CC(O)N(CCN2CCCC2)C(=S)N1` (stereo not given), the inhibition in vivo at 50 mg/kg was found to be 30%.

Consider `CC1CC(O)N(CCN2CCOCC2)C(=S)N1` (stereo not given), for which the inhibition in vivo at 50 mg/kg was 38%.

For `CC1CC(O)N(CC2CCCO2)C(=S)N1` (stereo not given), the inhibition in vivo at 50 mg/kg is 18%.

In the case of `CC1CC(O)N(CCN2CCCCC2)C(=S)N1` (stereo not given), the inhibition in vivo at 50 mg/kg turned out to be 29%.

For the compound `CC(C)Cc1ccc(C(C)C(=O)O)cc1` (stereo not given) [IBUPROFEN], the inhibition in vivo at 50 mg/kg was 39%.

Values taken from ChEMBL document CHEMBL3046783, “Synthesis of pyrimidine and condensed pyrimidine derivatives and their evaluation for anti-inflammatory activity” (2012).
